Experimental data published in patent US20050101542A1, “Combination therapy for controlling appetites” (Regents of the University of California, priority 2002, published 2005).

How the values were obtained:
[1] = rat, in vivo
Experimental: (§1) Drugs were administered by i.p. injection 15 min prior to food presentation in a volume of 1 ml/kg. For i.c.v. administration the obturator was removed from the guide cannula and an 8-mm injector (30-gauge stainless steel tubing) that was connected to 70 cm of calibrated polyethylene-10 tubing was lowered into the ventricle. The tubing was then raised until flow began and 5 μl of drug solution were infused over a 30-60 s period. The injector was left in the guide cannula for additional 30 s and then removed. The stylet was immediately replaced. Animals were tested 5 min after injections. The i.c.v. cannula placements were evaluated after each experiment by dye injection. Only those rats with proper i.c.v. placements were included in the data analysis.
(§2) The animals were then food-deprived for 24 h, with free access to water. 15 min after drug administration, the animals were returned to their home cage, where a can with a measured amount of food (usually 30-40 g) a bottle containing 250 ml of fresh water were placed. Food pellets and food spillage were weighed at 60,120 and 240 min after starting the test, and the amount of food eaten was recorded. At the end of the test, the amount of water consumed was also measured. For partial satiation of animals, 24 h food-deprived rats were allowed to eat from the can during 1 h. The can was retired and intake was recorded. 15 min after drug injections, the food was again presented, and the amount consumed was recorded hourly for the following 4 h.

[2] = Capsaicin sensory deafferentation and feeding, Example 8; format: in vivo, rat; conditions: CCK-8 10 μg/kg, CP 93129 1, WIN 55,212-2 2, anandamide 2, SR141716A 3 mg/kg, i.p.
Experimental: Capsaicin was administered subcutaneously (12.5 mg/ml, Kaneko, et al., Am. J. Physiol., 275:G1056-G1062 (1998)) in rats anesthetized with ethyl ether. The total dose of capsaicin (125 mg/kg) was divided into three injections (25 mg/kg in the morning and 50 mg/kg in the afternoon of the first day, 50 mg/kg on the 2nd day). Control rats received vehicle injections. […] Water intake (in ml/4 hr) was: vehicle 13.6±1.4; capsaicin rats 24.0±1.9, P<0.01 (n=12).
The can was retired and intake was recorded.

[3] = Food intake studies in food-deprived or partially satiated rats (i.p. or i.c.v.), Example 8; conditions: for food intake in partially satiated rats, systemic (i.p.) administration: 24 h food-deprived, allowed to eat 60 min before drug
Experimental: as §1, §2

human PPARα = target: T1, human PPARα (Homo sapiens, UniProt Q07869); test: GAL4 chimeric receptor transactivation assay in HeLa cells, PPARα; format: cell-based; conditions: HeLa transactivation assay
T1 construct: expressed in transfected cells; host or cells: HeLa (clonal reporter line HLR, stably transfected with pFA-PPARα)
T1 sequence (Q07869 239-466 limits assumed): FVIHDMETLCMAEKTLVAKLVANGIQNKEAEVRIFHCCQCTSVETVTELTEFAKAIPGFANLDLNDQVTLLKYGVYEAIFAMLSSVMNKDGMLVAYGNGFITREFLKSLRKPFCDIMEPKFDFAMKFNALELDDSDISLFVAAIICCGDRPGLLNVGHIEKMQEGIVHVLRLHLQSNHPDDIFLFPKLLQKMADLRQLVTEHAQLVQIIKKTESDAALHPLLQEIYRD
Experimental: Eighteen hours following transfection, the culture media was replaced with supplemented DMEM containing hygromycin (100 μg-ml^−1, Calbiochem). After 4 weeks in culture, the surviving clones were isolated and analyzed by luciferase assay. […] The cells were cultured in supplemented DMEM containing hygromycin and G418. For transactivation assays, cells were seeded in 6-well plates (50,000 cells per well) and incubated for 7 hours in supplemented DMEM containing hygromycin and G418, plus appropriate concentrations of test compounds. Dual-luciferase reporter assay system (Promega) and an MLX Microtiter® plate luminometer (Dynex) were used to determine luciferase activity in cell lysates.

Soleus muscle = test: [14C]oleate oxidation to CO2 in soleus muscle; format: cell-based, rat
Excerpt: This example illustrates the effect of OEA on fat metabolism and methods for studying the same. Oleoylethanolamide (OEA) decreases body weight not only by suppressing appetite, but also by possibly enhancing body fat catabolism. The effects of OEA on fatty acid oxidation in major body-fat burning tissues (soleus muscle, liver, cultured cardiac myocytes and astrocytes) was examined. […] In addition, OEA induces a significant mobilization of triacylglycerol stores from primary white adipose tissue cells. Table 4 details the methods and effects of OEA on fatty acid oxidation in these cells. Structure-activity relationship experiments provide evidence that the effect of OEA on skeletal muscle fatty acid oxidation is specific (FIG. 8).

[4] = Acute food intake in 24-h food-deprived rats, i.p. dosing; format: in vivo, rat; conditions: 24-h food-deprived rats, i.p.
Experimental: Feeding experiments. Acute experiments. Food intake was measured in 24-h food-deprived rats (Navarro, et al., J. Neurochem., 67:1982-1991 (1996)), administering drugs 15 min before food presentation. Subchronic experiments. Ad libitum fed rats received vehicle injections for three days. On day four, the animals were divided in two equal groups and gave them daily injections of vehicle or OEA (5 mg per kg at 1900 h) for 7 consecutive days, while measuring body weight, food intake and water intake.
The effects of systemically administered OEA or an OEA-like compound or OEA-like modulator on food intake in rats can be assessed using a 24 h fast. […] To define the selectivity of this response, various OEA analogs were evaluated for their ability to produce hypophagia.

## CCCCC/C=C\C/C=C\C/C=C\C/C=C\CCCC(=O)NCCO [anandamide, arachidonylethanolamide]
[1]
  motor effect at the highest central dose: motor impairment
[2]
  effect of capsaicin treatment on the drug's feeding response: loss of the hyperphagic effects
[3]
  food intake in partially satiated rats, systemic (i.p.) administration: significant and prolonged hyperphagia
  food intake after central (i.c.v.) administration: no effect on feeding
[3]; listed as Anandamide
  food intake in partially satiated rats, systemic (i.p.) administration: elicited hyperphagia
  food intake after central (i.c.v.) administration: no effect
[3]; anandamide or WIN 55,212-2 0.1-2 mg/kg
  food intake in 24 h food-deprived rats, systemic (i.p.) administration: no effect
Human PPARα
  PPARα activation: ineffective
Soleus muscle
  mimicry of the OEA effect on skeletal muscle fatty acid oxidation: not
[4]
  food intake (hypophagia): no effect
